Reference: ChEMBL document CHEMBL5252655, “Discovery of Potent Deuterated Compounds as Potential KRASG12D Inhibitors in Cancer Therapy” (ACS Med Chem Lett, 2023)

Molecular target: SOS1-KRAS (Homo sapiens, UniProt P01116, G12D)
Assay: Inhibition of SOS1/KRAS G12D mutant (unknown origin) protein-protein interaction incubated for 3 hrs by HTRF analysis

Sequence of SOS1-KRAS (P01116 whole entry G12D, looked up): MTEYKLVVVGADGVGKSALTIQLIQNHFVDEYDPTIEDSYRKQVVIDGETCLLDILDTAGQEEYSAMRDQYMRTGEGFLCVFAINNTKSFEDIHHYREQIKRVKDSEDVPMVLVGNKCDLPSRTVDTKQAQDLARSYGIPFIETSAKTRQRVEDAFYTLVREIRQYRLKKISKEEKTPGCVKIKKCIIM

Compound | IC50 [nM]
[2H]C([2H])(Oc1nc(N2CC3CCC2CN3)c2cnc(-c3cc(O)cc(Cl)c3C(F)(F)F)c(F)c2n1)C12CCCN1CCC2 (centres undefined) | ≤ 50
[2H]C([2H])(Oc1nc2c(c(N3CC4CCC(C3)N4)n1)CCN(c1cc(O)cc(Cl)c1C(F)(F)F)C2)C12CCCN1CCC2 | > 50
[2H]C([2H])(Oc1nc2c(c(N3CC4CCC(C3)N4)n1)CCN(c1cc(O)ccc1C(F)(F)F)C2)C12CCCN1CCC2 | > 250
[2H]C([2H])(Oc1nc(N2CC3CCC(C2)N3)c2cnc(-c3cc(O)cc(Cl)c3C(F)(F)F)c(F)c2n1)C12CCCN1CCC2 | ≤ 50
